Structures are written as SMILES.

For experiment [1], the target named is T1, Estrogen receptor beta (Homo sapiens, UniProt Q92731). The experiment is described as follows: Agonist activity at ER-beta (unknown origin) transfected in HEK293T cells after 24 hrs by Steady-Glo luciferase reporter gene assay relative to estradiol. As to conditions: HEK-293T. It is filed as cell-based.
The target of experiment [2] is T2, Estrogen receptor (Homo sapiens, UniProt P03372).
T2 sequence (P03372 whole entry): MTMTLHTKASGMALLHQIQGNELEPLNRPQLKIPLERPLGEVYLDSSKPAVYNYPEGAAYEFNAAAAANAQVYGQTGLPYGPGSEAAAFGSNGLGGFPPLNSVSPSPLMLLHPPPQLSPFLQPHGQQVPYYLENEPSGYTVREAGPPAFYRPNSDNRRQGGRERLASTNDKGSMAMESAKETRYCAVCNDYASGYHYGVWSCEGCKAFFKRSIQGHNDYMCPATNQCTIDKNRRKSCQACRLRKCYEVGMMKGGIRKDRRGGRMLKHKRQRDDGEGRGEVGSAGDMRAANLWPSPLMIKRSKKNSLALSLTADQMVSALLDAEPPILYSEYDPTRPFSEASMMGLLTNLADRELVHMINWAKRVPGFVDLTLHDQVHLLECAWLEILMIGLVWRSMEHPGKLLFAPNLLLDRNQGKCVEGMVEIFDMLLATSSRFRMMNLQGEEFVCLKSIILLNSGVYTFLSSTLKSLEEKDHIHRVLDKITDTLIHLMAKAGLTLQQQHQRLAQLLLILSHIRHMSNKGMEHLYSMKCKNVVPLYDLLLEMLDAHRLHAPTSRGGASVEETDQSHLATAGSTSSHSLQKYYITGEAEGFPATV
Description: Agonist activity at ER-alpha (unknown origin) transfected in HEK293T cells after 24 hrs by Steady-Glo luciferase reporter gene assay

In experiment [3] the target is T1, Estrogen receptor beta.
For experiment [4], the target named is T1, Estrogen receptor beta. The experiment is described as follows: Agonist activity at human ER-beta transfected in human 293 cells assessed as ALP reporter protein expression after 72 hrs by chemiluminescence assay. It is filed as cell-based.

T1 sequence (Q92731 whole entry): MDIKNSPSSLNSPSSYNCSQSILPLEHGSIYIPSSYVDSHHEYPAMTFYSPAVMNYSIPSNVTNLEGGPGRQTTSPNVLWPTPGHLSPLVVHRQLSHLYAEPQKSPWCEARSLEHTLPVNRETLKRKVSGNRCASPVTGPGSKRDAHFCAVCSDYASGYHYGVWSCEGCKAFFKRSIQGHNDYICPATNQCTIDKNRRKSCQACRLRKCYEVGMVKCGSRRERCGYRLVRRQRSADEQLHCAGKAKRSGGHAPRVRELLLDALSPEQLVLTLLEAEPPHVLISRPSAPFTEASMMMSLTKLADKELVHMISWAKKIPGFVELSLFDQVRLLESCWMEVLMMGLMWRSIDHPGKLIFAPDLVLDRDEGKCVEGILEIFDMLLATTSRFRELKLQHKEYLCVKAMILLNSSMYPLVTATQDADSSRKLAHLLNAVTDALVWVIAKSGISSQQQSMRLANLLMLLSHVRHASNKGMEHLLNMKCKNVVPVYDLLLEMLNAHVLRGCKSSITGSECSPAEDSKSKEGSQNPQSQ

The term EC50 denotes the concentration that produces a half-maximal response. Turning to `C[C@]12CC[C@@H](c3ccc(O)cc3)C[C@H]1CCC2=O`, the Efficacy in experiment [1] was 144%. Further, the half-maximal effective concentration (EC50) in experiment [2] is 7.94 µM; in experiment [3], 126 nM.

As to `C[C@]12CC[C@@H]3c4ccc(O)cc4CC[C@H]3[C@@H]1C[C@H](O)[C@H]2O`, the EC50 in experiment [4] was determined as 11 nM.

`C[C@]12CC[C@@H]3c4ccc(O)cc4CC[C@H]3[C@@H]1C[C@@H](O)[C@@H]2O` [ESTRIOL]: the half-maximal effective concentration (EC50) in experiment [3] was 0.126 nM.

In experiment [1], `C[C@]12CC[C@H](c3ccc(O)cc3)C[C@H]1C[C@H](O)[C@H]2O` showed an Efficacy of 108%. Further, the EC50 in experiment [2] was 10 µM; in experiment [3], 20 nM.

Turning to `C[C@]12CCC(c3ccc(O)cc3)C[C@H]1CC[C@@H]2O` (some centres undefined), in experiment [1], the Efficacy stood at 127%. Besides, the EC50 in experiment [2] is 0.0316 µM; in experiment [3] it was 0.398 nM.

`C[C@]12CC[C@H](c3ccc(O)cc3)C[C@H]1CCC2=O` registered an Efficacy in experiment [1] of 148%. For the same molecule, the concentration for a half-maximal effect (EC50) in experiment [2] was above 10 µM; in experiment [3], 251 nM.

The values above are taken from ChEMBL document CHEMBL3132860 (Medchemcomm, 2013).
